Experimental data: ChEMBL document CHEMBL4619732, “Two new secondary metabolites, saccharochlorines A and B, from a marine bacterium Saccharomonospora sp. KCTC-19160” (Bioorg Med Chem Lett, 2020)
Calls of active or inactive are those of the source. The rule behind the calls is not given here.

Columns and labels:
SH-SY5Y [1] = assay: Induction of amyloid beta (1 to 40) secretion in human SH-SY5Y cells incubated for overnight by ELISA; format: functional, cell-based
SH-SY5Y [2] = assay: Induction of amyloid beta (1 to 42) secretion in human SH-SY5Y cells incubated for overnight by ELISA; format: functional, cell-based
H4 [3] = assay: Induction of amyloid beta (1 to 40) secretion in human H4 cells overexpressing APP incubated for overnight by ELISA; format: functional, cell-based
H4 [4] = assay: Induction of amyloid beta (1 to 42) secretion in human H4 cells overexpressing APP incubated for overnight by ELISA; format: functional, cell-based
Homo sapiens = organism: Homo sapiens; assay: Inhibition of monoamine oxidase (unknown origin)

Structure (SMILES): CO/C(=C\c1cc(Cl)c(O)c(Cl)c1)C(=O)O
- Activity (SH-SY5Y [1]): inactive
- Activity (SH-SY5Y [2]): inactive
- Activity (H4 [3]): Dose-dependent effect
- Activity (H4 [4]): Dose-dependent effect
- inhibition (Homo sapiens): inactive

Structure (SMILES): CO/C(=C\c1ccc(O)c(Cl)c1)C(=O)O
- Activity (SH-SY5Y [1]): inactive
- Activity (SH-SY5Y [2]): inactive
- Activity (H4 [3]): Dose-dependent effect
- Activity (H4 [4]): Dose-dependent effect
- inhibition (Homo sapiens): inactive
